Assay [1] concerns the target T1, Mouse 11b-HSD1 (Mus musculus, UniProt P50172).
T1 construct: expressed in transfected cells
The assay can be described thus: Inhibition of cortisone-to-cortisol conversion in CHO-K1 cells over-expressing mouse 11b-HSD1 (HTRF cortisol assay). Format: cell-based. The settings on record: CHO-K1 cells over-expressing mouse 11b-HSD1, 160 nM cortisone, 3 hours, 37° C. The source says: (§1) cDNA (human: Accession No. U12978.2; mouse: Accession No. NM_008288.2) coding the full-length amino acid sequence of 11β-HSD1 in a human and a mouse was incorporated into pMSCVpuro (from Clontech. Co. Ltd.), a vector of expressing a mammalian cell for the production of a retrovirus, and the resulting product was introduced into a GP2-293 cell (from Clontech Co. Ltd.), a retrovirus packing cell line together with pVSV-G vector (from Clontech Co. Ltd.) by using a Lipotamine plus reagent (from Invitrogen Co. Ltd.) in accordance with the method set forth in the appendix (by using HTRF cortisol assay kit from Cisbio assays Co., Ltd., catalog No. 62CO2PEB) and stabilized for 48 hours. Thereafter, viruses being obtained from those cells were used to infect CHO-K1 cell (from Korean Cell Line Bank, KCLB No. 10061) and in 24 hours, the cells were treated with 10 μg/ml pumycin (from Sigma Co. Ltd.) for two weeks to produce a stabilized cell system wherein each 11β-HSD1 in humans or in mice was over-expressed. When the cells being maintained, 5 μg/ml of puromycin was put into the medium and used (RPMI (Gibco), 37° C.). • Reference material: The EMBO Journal (2008) 27, 642-653
(§2) The obtained cells with 11b-HSD1 in a human and a mouse being over-expressed were sub-cultured in a 96-well plate with a cell number being 3×10^4 cells per well and stabilized for 24 hours [RPMI (Gibco), at 37° C., as being used in 5 days after thawing]. After a medium as diluted with DMSO including 160 nM of cortisone (from Sigma Co. Ltd.) and a test compound at a different concentration was put into each well in an amount of 200 ul, the well was cultured in a cell cultivator at 37° C. for 3 hours. 10 ul of the cultured solution was put into a 384 well plate and the amount of cortisol as generated was measured using a cortisol kit (from Cisbio international Co. Ltd, HTRF assay) in accordance with the method set forth in the appended manual.
(§3) As a control group, 160 nM of cortisone and 1% of DMSO were put into a corresponding well. The ground value was obtained from a well including only 160 nM of cortisone and 1% of DMSO without cells just like the control group. The calculation for a % inhibition level was made following the manual as appended. • Reference material: The Journal of Steroid Biochemistry and Molecular Biology, Volume 104, Issues 3-5, May 2007, Pages 123-129 • Bioorganic & Medicinal Chemistry Letters Volume 19, Issue 10, 15 May 2009, Pages 2674-2678
(§4) Like the analyzing method as stated above, the efficacy of inhibiting 11b-HSD1 was calculated as IC50 and the results are shown in Table 1: […]

For assay [2], the target named is T2, Human 11b-HSD1 (Homo sapiens, UniProt P28845).
T2 construct: expressed in transfected cells
The assay can be described thus: Inhibition of cortisone-to-cortisol conversion in CHO-K1 cells over-expressing human 11b-HSD1 (HTRF cortisol assay). The assay is classed as cell-based. The following applies: CHO-K1 cells over-expressing human 11b-HSD1, 160 nM cortisone, 3 hours, 37° C.
Source text: as §1, §2, §3, §4
A general note: Time-resolved FRET reads energy transfer from a long-lived donor to a nearby acceptor.

pIC50: −log10 of the molar value.

T1 sequence (P50172 whole entry): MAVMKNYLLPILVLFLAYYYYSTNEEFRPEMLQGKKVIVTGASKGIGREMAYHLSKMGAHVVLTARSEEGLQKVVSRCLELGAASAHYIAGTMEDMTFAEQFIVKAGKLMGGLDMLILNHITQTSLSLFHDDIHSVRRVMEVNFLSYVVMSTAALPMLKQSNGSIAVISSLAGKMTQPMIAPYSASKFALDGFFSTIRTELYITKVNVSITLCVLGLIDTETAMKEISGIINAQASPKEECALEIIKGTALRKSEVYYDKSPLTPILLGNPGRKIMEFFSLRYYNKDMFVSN
T2 sequence (P28845 whole entry): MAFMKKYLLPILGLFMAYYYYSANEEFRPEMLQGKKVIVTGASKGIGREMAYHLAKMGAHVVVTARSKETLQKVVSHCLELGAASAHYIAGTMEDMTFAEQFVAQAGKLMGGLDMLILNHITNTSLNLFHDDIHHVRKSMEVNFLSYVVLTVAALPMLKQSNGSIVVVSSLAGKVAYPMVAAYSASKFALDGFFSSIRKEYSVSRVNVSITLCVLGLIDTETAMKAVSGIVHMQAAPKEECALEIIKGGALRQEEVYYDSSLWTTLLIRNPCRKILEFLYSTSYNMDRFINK

In general, pIC50 refers to the IC50 on a negative log10 scale, so that one unit is a factor of ten. Low values mean a high IC50, high ones a low IC50. On to `NC(=O)[C@]12CC3CC(C1)[C@@H](NC(=O)c1ccc(-c4ccc([N+](=O)[O-])cc4)o1)C(C3)C2` [Example 3, N-(5-carbamoyl-2-adamantyl)-5-(4-nitrophenyl)furan-2-carboxamide], for which the negative-log IC50 (pIC50) in assay [1] is < 6.30; in assay [2], > 7.00.

In the case of `Cc1ccc(-c2ccc(C(=O)N[C@H]3C4CC5CC3C[C@](C(N)=O)(C5)C4)o2)cc1` [Example 4, N-(5-carbamoyl-2-adamantyl)-5-(4-methylphenyl)furan-2-carboxamide], the pIC50 in assay [1] was 6.30 to 7.00; in assay [2] it was > 7.00.

With `Cc1cccc(-c2cc(C(=O)N[C@H]3C4CC5CC3C[C@](C(N)=O)(C5)C4)no2)c1` [Example 6, N-(5-carbamoyl-2-adamantyl)-5-(3-methylphenyl)-1,2-oxazole-3-carboxamide], the negative-log IC50 (pIC50) in assay [1] and in assay [2] was < 6.30 in each case.

Regarding `COc1ccccc1-c1cc(C(=O)N[C@H]2C3CC4CC2C[C@](C(N)=O)(C4)C3)no1` [Example 7, N-(5-carbamoyl-2-adamantyl)-5-(2-methoxyphenyl)-1,2-oxazole-3-carboxamide], the pIC50 in assay [1] and in assay [2] was < 6.30 throughout.

As to `Cc1ccccc1-c1cc(C(=O)N[C@H]2C3CC4CC2C[C@](C(N)=O)(C4)C3)no1` [Example 8, N-(5-carbamoyl-2-adamantyl)-5-(2-methylphenyl)-1,2-oxazole-3-carboxamide], the figures for the pIC50 in assay [1] and in assay [2] were < 6.30 and 6.30 to 7.00, respectively.

With `NC(=O)[C@]12CC3CC(C1)[C@@H](NC(=O)c1cc(-c4cccc(F)c4)on1)C(C3)C2` [Example 12, N-(5-carbamoyl-2-adamantyl)-5-(3-fluorophenyl)-1,2-oxazole-3-carboxamide], the negative logarithm of the IC50 (pIC50) in assay [1] and in assay [2] was < 6.30 throughout.

Turning to `NC(=O)[C@]12CC3CC(C1)[C@@H](NC(=O)c1cc(-c4ccc(Cl)cc4)on1)C(C3)C2` [Example 13, N-(5-carbamoyl-2-adamantyl)-5-(4-chlorophenyl)-1,2-oxazole-3-carboxamide], the negative-log IC50 (pIC50) is < 6.30 in assay [1] and 6.30 to 7.00 in assay [2].

Turning to `Cc1cccc(C(=O)N[C@H]2C3CC4CC2C[C@](C(N)=O)(C4)C3)n1` [Example 15, N-(5-carbamoyl-2-adamantyl)-6-methylpyridine-2-carboxamide], the negative-log IC50 (pIC50) in assay [1] is 6.30 to 7.00; in assay [2], > 7.00.

For `NC(=O)[C@]12CC3CC(C1)[C@@H](NC(=O)c1ccccn1)C(C3)C2` [Example 16, N-(5-carbamoyl-2-adamantyl)pyridine-2-carboxamide], the pIC50 in assay [1] and in assay [2] was < 6.30 in each case.

As to `Cn1cccc1C(=O)N[C@H]1C2CC3CC1C[C@](C(N)=O)(C3)C2` [Example 17, N-(5-carbamoyl-2-adamantyl)-1-methylpyrrole-2-carboxamide], the pIC50 in assay [1] and in assay [2] was < 6.30 each time.

For the molecule `NC(=O)[C@]12CC3CC(C1)[C@@H](NC(=O)c1ccc(-c4cccs4)s1)C(C3)C2` [Example 21, N-(5-carbamoyl-2-adamantyl)-5-thiophen-2-yl-thiophene-2-carboxamide], the pIC50 in assay [1] and in assay [2] was > 7.00 throughout.

Turning to `NC(=O)[C@]12CC3CC(C1)[C@@H](NC(=O)c1cccs1)C(C3)C2` [Example 22, N-(5-carbamoyl-2-adamantyl)thiophene-2-carboxamide], the negative logarithm of the IC50 (pIC50) in assay [1] is < 6.30; in assay [2], 6.30 to 7.00.

For the molecule `Cc1csc(C(=O)N[C@H]2C3CC4CC2C[C@](C(N)=O)(C4)C3)c1` [Example 23, N-(5-carbamoyl-2-adamantyl)-4-methylthiophene-2-carboxamide], the negative logarithm of the IC50 (pIC50) in assay [1] and in assay [2] was 6.30 to 7.00 each time.

As to `Cc1ccc(C(=O)N[C@H]2C3CC4CC2C[C@](C(N)=O)(C4)C3)s1` [Example 24, N-(5-carbamoyl-2-adamantyl)-5-methylthiophene-2-carboxamide], the pIC50 in assay [1] is 6.30 to 7.00; in assay [2], > 7.00.

As for `NC(=O)[C@]12CC3CC(C1)[C@@H](NC(=O)c1ccc(-c4ccc(F)cc4)o1)C(C3)C2` [Example 25, N-(5-carbamoyl-2-adamantyl)-5-(4-fluorophenyl)furan-2-carboxamide], the pIC50 in assay [1] and in assay [2] was > 7.00 throughout.

Consider `COc1ccc(-c2ccc(C(=O)N[C@H]3C4CC5CC3C[C@](C(N)=O)(C5)C4)o2)cc1` [Example 28, N-(5-carbamoyl-2-adamantyl)-5-(4-methoxyphenyl)furan-2-carboxamide], for which the figures for the pIC50 in assay [1] and in assay [2] were 6.30 to 7.00 and > 7.00, respectively.

Consider `NC(=O)[C@]12CC3CC(C1)[C@@H](NC(=O)c1ccc(-c4ccc(F)c(F)c4)o1)C(C3)C2` [Example 29, N-(5-carbamoyl-2-adamantyl)-5-(3,4-difluorophenyl)furan-2-carboxamide], for which the pIC50 in assay [1] was 6.30 to 7.00; in assay [2], > 7.00.

As to `NC(=O)[C@]12CC3CC(C1)[C@@H](NC(=O)c1ccc(-c4ccc(Cl)c(Cl)c4)o1)C(C3)C2` [Example 31, N-(5-carbamoyl-2-adamantyl)-5-(3,4-dichlorophenyl)furan-2-carboxamide], the pIC50 in assay [1] was 6.30 to 7.00; in assay [2], > 7.00.

In the case of `NC(=O)[C@]12CC3CC(C1)[C@@H](NC(=O)c1ccc(-c4cc(Cl)cc(Cl)c4)o1)C(C3)C2` [Example 32, N-(5-carbamoyl-2-adamantyl)-5-(3,5-dichlorophenyl)furan-2-carboxamide], the negative logarithm of the IC50 (pIC50) is 6.30 to 7.00 in assay [1] and > 7.00 in assay [2].

For the molecule `Cn1c(C(=O)N[C@H]2C3CC4CC2C[C@](C(N)=O)(C4)C3)ccc1-c1cccc(Cl)c1` [Example 33, N-(5-carbamoyl-2-adamantyl)-5-(3-chlorophenyl)-1-methylpyrrole-2-carboxamide], the negative-log IC50 (pIC50) in assay [1] and in assay [2] was > 7.00 throughout.

Turning to `Cn1c(C(=O)N[C@H]2C3CC4CC2C[C@](C(N)=O)(C4)C3)ccc1-c1ccc(Cl)cc1` [Example 35, N-(5-carbamoyl-2-adamantyl)-5-(4-chlorophenyl)-1-methylpyrrole-2-carboxamide], the negative logarithm of the IC50 (pIC50) in assay [1] is 6.30 to 7.00; in assay [2] it was > 7.00.

Turning to `Cn1c(C(=O)N[C@H]2C3CC4CC2C[C@](C(N)=O)(C4)C3)ccc1-c1ccc(F)cc1` [Example 36, N-(5-carbamoyl-2-adamantyl)-5-(4-fluorophenyl)-1-methylpyrrole-2-carboxamide], the negative-log IC50 (pIC50) in assay [1] and in assay [2] was > 7.00 throughout.

Take `Cn1c(C(=O)N[C@H]2C3CC4CC2C[C@](C(N)=O)(C4)C3)ccc1-c1ccc(C(F)(F)F)cc1` [Example 37, N-(5-carbamoyl-2-adamantyl)-1-methyl-5-[4-(trifluoromethyl)phenyl]pyrrole-2-carboxamide]: the pIC50 in assay [1] is 6.30 to 7.00; in assay [2], > 7.00.

Consider `NC(=O)[C@]12CC3CC(C1)[C@@H](NC(=O)c1ccc(-c4ccc(Cl)cc4)s1)C(C3)C2` [Example 41, N-(5-carbamoyl-2-adamantyl)-5-(4-chlorophenyl)thiophene-2-carboxamide], for which the results for the negative logarithm of the IC50 (pIC50) in assay [1] and in assay [2] were 6.30 to 7.00 and > 7.00, respectively.

In the case of `NC(=O)[C@]12CC3CC(C1)[C@@H](NC(=O)c1ccc(-c4cccc(Cl)c4)s1)C(C3)C2` [Example 42, N-(5-carbamoyl-2-adamantyl)-5-(3-chlorophenyl)thiophene-2-carboxamide], the negative-log IC50 (pIC50) in assay [1] and in assay [2] was > 7.00 throughout.

As to `NC(=O)[C@]12CC3CC(C1)[C@@H](NC(=O)c1ccc(-c4ccccc4F)s1)C(C3)C2` [Example 44, N-(5-carbamoyl-2-adamantyl)-5-(2-fluorophenyl)thiophene-2-carboxamide], the negative logarithm of the IC50 (pIC50) in assay [1] and in assay [2] was > 7.00 each time.

For `COc1cccc(C(=O)N[C@H]2C3CC4CC2C[C@](C(N)=O)(C4)C3)n1` [Example 45, N-(5-carbamoyl-2-adamantyl)-6-methoxypyridine-2-carboxamide], the pIC50 in assay [1] was 6.30 to 7.00; in assay [2], > 7.00.

For the molecule `Cc1noc(C)c1COc1cccc(C(=O)N[C@H]2C3CC4CC2C[C@](C(N)=O)(C4)C3)n1` [Example 48, N-(5-carbamoyl-2-adamantyl)-6-[(3,5-dimethyl-1,2-oxazol-4-yl)methoxy]pyridine-2-carboxamide], in assay [2], the pIC50 is > 7.00.

Values taken from patent publication US9233957B2, “5-carbamoyl-adamantan-2-yl amide derivatives, pharmaceutically acceptable salts thereof and preparation process thereof” (SK BIOPHARMACEUTICALS CO., LTD., priority 2011, dated 2016).
